Ki data for twelve compounds are collected here from ChEMBL document CHEMBL1128423, “Synthesis and evaluation of 6,11-ethanohexahydrobenzo[b]quinolizidines: a new class of noncompetitive N-methyl-D-aspartate antagonists” (J Med Chem, 1995).

The target in the assay is Glutamate NMDA receptor. Kind of assay: Displacement of [3H]TCP from NMDA receptor of rat brain membranes. The assay is classed as cell membranes, Membrane.
`Nc1ccc2c(c1)C1C3CCCC3C2N2CCCCC12` (configuration not stated) displayed a Ki of 12 nM.
Then `c1ccc2c(c1)C1C3CCCCC3C2N2CCCCC12` (configuration not stated), with 134 nM; and `Oc1ccc2c(c1)C1C3CCCC3C2N2CCCCC12` (configuration not stated), with 2.3 nM.
Next, `Oc1ccc2c(c1)C1C3CCCC3C2C2CCCCN21` (configuration not stated): 23 nM; `c1ccc2c(c1)C1C3OCCC3C2N2CCCCC12` (configuration not stated): 600 nM.
Next, `Brc1ccc2c(c1)C1C3CCCC3C2N2CCCCC12` (configuration not stated): 41 nM.
For `Oc1cccc2c1C1C3CCCC3C2N2CCCCC12` (configuration not stated), the affinity, expressed as Ki, was 2.3 nM.
Next, `c1ccc2c(c1)C1C3CCCC3C2N2CCCCC12` (configuration not stated): 15 nM; `CC12c3ccccc3C(C3CCCC31)N1CCCCC12` (configuration not stated): 46 nM.
`c1ccc2c(c1)C1CCC2N2CCCCC12` (configuration not stated) had a Ki of 240 nM.
`c1ccc2c(c1)CC1CCCCN1C2` (configuration not stated) came in with an inhibitory constant (Ki) of 10000 nM.
Then `Fc1ccc2c(c1)C1C3CCCC3C2N2CCCCC12` (configuration not stated), with 20 nM.

As usually defined, the Ki is a dissociation constant, usually derived from enzyme kinetics or from competition with a known ligand.
